# Laboratory results as given in patent US8614201B2 (Janssen Pharmaceutica NV, priority 2009, dated 2013).
# Target: Human TRPA1 (Homo sapiens, UniProt O75762)
# Test: Assay 1: In vitro cellular testing of TRPA1 modulation (CHO-TREx, Fluo-3 calcium fluorescence, AITC agonist)
# Type: cell-based
# Set-up: expressed in transfected cells; host or cells: CHO-TREx cells (Invitrogen), vector pcDNA4/TO
# Conditions: CHO-TREx cells expressing human TRPA1; Fluo-3 fluorescence (FLIPR/Tetra); agonist 15 μM allyl isothiocyanate (AITC); 30 minute antagonist incubation
# Method in brief: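 Tetracycline-induced CHO-TREx cells stably expressing human TRPA1, loaded with 4 μM Fluo-3 AM, preincubated 30 min with compound (serial dilution typically from 10 μM, three-fold steps) in HEPES saline pH 7.4. Fluorescence change over 3 min after 15 μM AITC; IC50 from Hill fit versus no-antagonist and 10 μM ruthenium red controls.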
# Human TRPA1, sequence (O75762 whole entry): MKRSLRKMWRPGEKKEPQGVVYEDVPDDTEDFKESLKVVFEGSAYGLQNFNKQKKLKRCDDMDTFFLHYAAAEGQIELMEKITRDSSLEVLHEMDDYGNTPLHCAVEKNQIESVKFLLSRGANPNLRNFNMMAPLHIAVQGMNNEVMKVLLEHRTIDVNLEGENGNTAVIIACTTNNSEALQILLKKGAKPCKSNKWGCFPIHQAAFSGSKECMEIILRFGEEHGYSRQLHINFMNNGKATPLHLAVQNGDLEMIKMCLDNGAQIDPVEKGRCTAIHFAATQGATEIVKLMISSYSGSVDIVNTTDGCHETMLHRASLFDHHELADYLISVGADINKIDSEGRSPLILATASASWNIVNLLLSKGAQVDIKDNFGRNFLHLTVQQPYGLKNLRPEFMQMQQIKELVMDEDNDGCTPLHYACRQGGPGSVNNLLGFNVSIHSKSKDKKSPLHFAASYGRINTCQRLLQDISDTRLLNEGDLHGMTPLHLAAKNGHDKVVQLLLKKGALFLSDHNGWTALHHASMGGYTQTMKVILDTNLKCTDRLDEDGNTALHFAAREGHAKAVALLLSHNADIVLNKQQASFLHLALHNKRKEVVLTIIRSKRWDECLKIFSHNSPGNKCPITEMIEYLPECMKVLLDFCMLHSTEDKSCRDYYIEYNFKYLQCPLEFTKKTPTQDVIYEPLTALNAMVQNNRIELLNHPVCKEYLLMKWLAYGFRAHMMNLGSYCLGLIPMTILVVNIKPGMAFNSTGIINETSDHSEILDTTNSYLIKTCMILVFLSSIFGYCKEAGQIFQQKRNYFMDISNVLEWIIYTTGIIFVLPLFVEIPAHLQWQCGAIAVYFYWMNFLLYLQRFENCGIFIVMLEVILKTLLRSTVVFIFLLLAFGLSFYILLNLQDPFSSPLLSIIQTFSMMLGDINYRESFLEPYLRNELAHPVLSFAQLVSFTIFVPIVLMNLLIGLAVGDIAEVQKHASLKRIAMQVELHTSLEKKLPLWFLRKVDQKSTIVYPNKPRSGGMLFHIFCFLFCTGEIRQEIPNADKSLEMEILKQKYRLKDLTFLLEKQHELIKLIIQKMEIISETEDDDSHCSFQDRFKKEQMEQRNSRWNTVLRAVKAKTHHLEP
row,IC50,Compound
1,17 nM,"O=C(NCc1cccc(-c2ccc(C(F)(F)F)nc2)c1)[C@@H]1CCCN1S(=O)(=O)c1ccc(F)cc1 [Example 88, 1-(4-Fluorobenzenesulfonyl)-pyrrolidine-2S-carboxylic acid 3-(6-trifluoromethylpyridin-3-yl)-benzyl amide]"
2,844 nM,"CC(=O)c1ccc(-c2cccc(CNC(=O)[C@@H]3CCCN3S(=O)(=O)c3ccc(F)cc3)c2)cc1 [Example 89, 1-(4-Fluorobenzenesulfonyl)-pyrrolidine-2S-carboxylic acid (4′-acetylbiphenyl-3-ylmethyl)-amide]"
3,8300 nM,"COc1ccc(-c2cccc(CNC(=O)[C@@H]3CCCN3S(=O)(=O)c3ccc(F)cc3)c2)nc1 [Example 90, 1-(4-Fluorobenzenesulfonyl)-pyrrolidine-2S-carboxylic acid 3-(5-methoxypyridin-2-yl)-benzylamide]"
4,175 nM,"O=C(NCc1cccc(-c2ccc(Cl)cn2)c1)[C@@H]1CCCN1S(=O)(=O)c1ccc(F)cc1 [Example 91, 1-(4-Fluorobenzenesulfonyl)-pyrrolidine-2S-carboxylic acid 3-(5-chloropyridin-2-yl)-benzylamide]"
5,17 nM,"O=C(NCc1cccc(-c2ccc(C(F)(F)F)cn2)c1)[C@@H]1CCCN1S(=O)(=O)c1ccc(F)cc1 [Example 92, 1-(4-Fluorobenzenesulfonyl)-pyrrolidine-2S-carboxylic acid 3-(5-trifluoromethylpyridin-2-yl)-benzylamide]"
6,86 nM,"CN(C)c1ccc(-c2cccc(CNC(=O)[C@@H]3CCCN3S(=O)(=O)c3ccc(F)cc3)c2)cc1 [Example 93, 1-(4-Fluorobenzenesulfonyl)-pyrrolidine-2S-carboxylic acid (4′-dimethylaminobiphenyl-3-ylmethyl)-amide]"
7,1630 nM,"O=C(NCc1cccc(-c2ccc(N3CCOCC3)cc2)c1)[C@@H]1CCCN1S(=O)(=O)c1ccc(F)cc1 [Example 94, 1-(4-Fluorobenzenesulfonyl)-pyrrolidine-2S-carboxylic acid (4′-morpholin-4-yl-biphenyl-3-ylmethyl)-amide]"
8,432 nM,"Cn1ccc2cc(-c3cccc(CNC(=O)[C@@H]4CCCN4S(=O)(=O)c4ccc(F)cc4)c3)ccc21 [Example 96, 1-(4-Fluoro-benzenesulfonyl)-pyrrolidine-2S-carboxylic acid 3-(1-methyl-1H-indol-5-yl)-benzylamide]"
9,1710 nM,"O=C(NCc1cccc(-c2ccc(N3CCOCC3)nc2)c1)[C@@H]1CCCN1S(=O)(=O)c1ccc(F)cc1 [Example 97, 1-(4-Fluorobenzenesulfonyl)-pyrrolidine-2S-carboxylic acid 3-(6-morpholin-4-yl-pyridin-3-yl)-benzylamide]"
10,381 nM,"O=C(NCc1cccc(-c2ccccc2)c1)[C@@H]1CCCN1S(=O)(=O)c1ccc(F)cc1 [Example 98, 1-(4-Fluorobenzenesulfonyl)-pyrrolidine-2S-carboxylic acid (biphenyl-3-ylmethyl)-amide]"
11,4050 nM,"O=C(NCc1cccc(-c2ccc3cc[nH]c3c2)c1)[C@@H]1CCCN1S(=O)(=O)c1ccc(F)cc1 [Example 101, 1-(4-Fluorobenzenesulfonyl)-pyrrolidine-2S-carboxylic acid 3-(1H-indol-6-yl)-benzylamide]"
12,1700 nM,"O=C(NCc1cccc(-c2ccc(CN3CCOCC3)cc2)c1)[C@@H]1CCCN1S(=O)(=O)c1ccc(F)cc1 [Example 102, 1-(4-Fluorobenzenesulfonyl)-pyrrolidine-2S-carboxylic acid (4′-morpholin-4-ylmethylbiphenyl-3-ylmethyl)-amide]"
13,252 nM,"O=C(NCc1cccc(-c2ccc(N3CCCCC3)cc2)c1)[C@@H]1CCCN1S(=O)(=O)c1ccc(F)cc1 [Example 103, 1-(4-Fluoro-benzenesulfonyl)-pyrrolidine-2S-carboxylic acid (4′-piperidin-1-yl-biphenyl-3-ylmethyl)-amide]"
14,460 nM,"CN(C)c1ccc(-c2cccc(CNC(=O)[C@@H]3CCCN3S(=O)(=O)c3ccc(F)cc3)c2)cn1 [Example 104, 1-(4-Fluorobenzenesulfonyl)-pyrrolidine-2S-carboxylic acid 3-(6-dimethylaminopyridin-3-yl)-benzylamide]"
15,1030 nM,O=C(NCc1cccc(-c2cnc3ccccc3c2)c1)[C@@H]1CCCN1S(=O)(=O)c1ccc(F)cc1 [Example 105]
16,594 nM,"O=C(NCc1cccc(-c2ccc3ncccc3c2)c1)[C@@H]1CCCN1S(=O)(=O)c1ccc(F)cc1 [Example 106, 1-(4-Fluoro-benzenesulfonyl)-pyrrolidine-2S-carboxylic acid 3-quinolin-6-yl-benzylamide]"

row,IC50,Compound
1,518 nM,"O=C(NCc1cccc(-c2ccc3ccccc3n2)c1)[C@@H]1CCCN1S(=O)(=O)c1ccc(F)cc1 [Example 107, 1-(4-Fluoro-benzenesulfonyl)-pyrrolidine-2S-carboxylic acid 3-quinolin-2-yl-benzylamide]"
2,2530 nM,"Cn1ccc2ccc(-c3cccc(CNC(=O)[C@@H]4CCCN4S(=O)(=O)c4ccc(F)cc4)c3)cc21 [Example 108, 1-(4-Fluorobenzenesulfonyl)-pyrrolidine-2S-carboxylic acid 3-(1-methyl-1H-indol-6-yl)-benzylamide]"
3,319 nM,"O=C(NCc1cccc(-c2ccc(C(F)(F)F)cc2)c1)[C@@H]1[C@H]2C[C@H]2CN1S(=O)(=O)c1ccc(F)cc1 [Example 109, 3-(4-Fluorobenzenesulfonyl)-3-aza-1S,5R-bicyclo[3.1.0]hexane-2S-carboxylic acid (4′-trifluoromethylbiphenyl-3-ylmethyl)-amide]"
4,92 nM,"O=C(NCc1cccc(-c2ccc(C(F)(F)F)cc2)c1)[C@@H]1[C@H]2C[C@H]2CN1S(=O)(=O)c1ccc(Cl)s1 [Example 110, 3-(5-Chlorothiophene-2-sulfonyl)-3-aza-1S,5R-bicyclo[3.1.0]hexane-2S-carboxylic acid (4′-trifluoromethylbiphenyl-3-ylmethyl)-amide]"
5,14 nM,"O=C(NCc1cccc(-c2ccc(C(F)(F)F)cc2)c1)[C@@H]1C=CCN1S(=O)(=O)c1ccc(F)cc1 [Example 111, 1-(4-Fluorobenzenesulfonyl)-2,5-dihydro-1H-pyrrole-2S-carboxylic acid (4′-trifluoromethylbiphenyl-3-ylmethyl)-amide]"
6,11 nM,"O=C(NCc1cccc(-c2ccc(C(F)(F)F)cc2)c1)[C@@H]1C=CCN1S(=O)(=O)c1ccc(Cl)s1 [Example 112, 1-(5-Chlorothiophene-2-sulfonyl)-2,5-dihydro-1H-pyrrole-2S-carboxylic acid (4′-trifluoromethylbiphenyl-3-ylmethyl)-amide]"
7,62 nM,"C[C@H](NC(=O)[C@@H]1CCCN1S(=O)(=O)c1ccc(F)cc1)c1cccc(-c2ccc(C(F)(F)F)cc2)c1 [Example 113, (1S,2S)-1-(4-Fluoro-benzenesulfonyl)-pyrrolidine-2-carboxylic acid [1-(4′-trifluoromethyl-biphenyl-3-yl)-ethyl]-amide]"
8,2930 nM,"C[C@@H](NC(=O)[C@@H]1CCCN1S(=O)(=O)c1ccc(F)cc1)c1cccc(-c2ccc(C(F)(F)F)cc2)c1 [Example 114, (1R,2S)-1-(4-Fluoro-benzenesulfonyl)-pyrrolidine-2-carboxylic acid [1-(4′-trifluoromethyl-biphenyl-3-yl)ethyl]-amide]"
9,15 nM,"C[C@H](NC(=O)[C@@H]1CCCN1S(=O)(=O)c1ccc(Cl)s1)c1cccc(-c2ccc(C(F)(F)F)cc2)c1 [Example 115, (1S,2S)-1-(5-Chloro-thiophene-2-sulfonyl)-pyrrolidine-2-carboxylic acid [1-(4′-trifluoromethylbiphenyl-3-yl)ethyl]-amide]"
10,386 nM,"C[C@@H](NC(=O)[C@@H]1CCCN1S(=O)(=O)c1ccc(Cl)s1)c1cccc(-c2ccc(C(F)(F)F)cc2)c1 [Example 116, (1R,2S)-1-(5-Chloro-thiophene-2-sulfonyl)-pyrrolidine-2-carboxylic acid [1-(4′-trifluoromethylbiphenyl-3-yl)ethyl]-amide]"
11,5770 nM,"CC(C)(NC(=O)[C@@H]1CCCN1S(=O)(=O)c1ccc(Cl)s1)c1cccc(-c2ccc(C(F)(F)F)cc2)c1 [Example 118, (2S)-1-(5-Chloro-thiophene-2-sulfonyl)-pyrrolidine-2-carboxylic acid [1-methyl-1-(4′-trifluoromethyl-biphenyl-3-yl)ethyl]-amide]"
12,47 nM,"O=C(NCc1cccc(-c2ccc(C(F)(F)F)cc2)c1)[C@@H]1CC(F)(F)CN1S(=O)(=O)c1ccc(F)cc1 [Example 119, (2S)-4,4-Difluoro-1-(4-fluoro-benzenesulfonyl)-pyrrolidine-2-carboxylic acid (4′-trifluoromethyl-biphenyl-3-ylmethyl)-amide]"
13,30 nM,"O=C(NCc1cccc(-c2ccc(C(F)(F)F)cc2)c1)[C@@H]1CC(F)(F)CN1S(=O)(=O)c1ccc(Cl)s1 [Example 120, (2S)-1-(5-Chloro-thiophene-2-sulfonyl)-4,4-difluoro-pyrrolidine-2-carboxylic acid (4′-trifluoromethyl-biphenyl-3-ylmethyl)-amide]"
14,1530 nM,"O=C(NCc1cccc(-c2ccc(C(F)(F)F)cc2)c1)[C@@H]1C[C@H](O)CN1S(=O)(=O)c1ccc(F)cc1 [Example 121, (2S,4S)-1-(4-Fluoro-benzenesulfonyl)-4-hydroxy-pyrrolidine-2-carboxylic acid (4′-trifluoromethyl-biphenyl-3-ylmethyl)-amide]"
15,267 nM,"O=C(NCc1cccc(-c2ccc(C(F)(F)F)cc2)c1)[C@@H]1C[C@@H](O)CN1S(=O)(=O)c1ccc(F)cc1 [Example 122, (2S,4R)-1-(4-Fluoro-benzenesulfonyl)-4-hydroxy-pyrrolidine-2-carboxylic acid (4′-trifluoromethyl-biphenyl-3-ylmethyl)-amide]"
